{
  "source": "patent US8124641B2",
  "about": "“Aminotetrahydroindazoloacetic acids” (Hoffmann-La Roche Inc., priority 2008, dated 2012)",
  "target": "T1, human CRTH2 (Homo sapiens, UniProt Q9Y5Y4)",
  "T1 construct": "expressed in transfected cells",
  "T1 sequence (Q9Y5Y4 1-395)": "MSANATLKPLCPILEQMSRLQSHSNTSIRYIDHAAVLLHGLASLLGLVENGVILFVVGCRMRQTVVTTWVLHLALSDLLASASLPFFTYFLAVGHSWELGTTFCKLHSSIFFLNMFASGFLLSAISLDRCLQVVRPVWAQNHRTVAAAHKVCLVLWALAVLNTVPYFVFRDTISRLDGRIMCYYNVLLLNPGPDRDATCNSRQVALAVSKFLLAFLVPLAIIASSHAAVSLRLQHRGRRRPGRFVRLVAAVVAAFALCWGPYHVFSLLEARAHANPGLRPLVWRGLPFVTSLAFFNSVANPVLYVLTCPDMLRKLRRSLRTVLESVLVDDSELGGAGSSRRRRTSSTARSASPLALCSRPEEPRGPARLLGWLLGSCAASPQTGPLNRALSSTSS",
  "assay": "Human CRTH2 Receptor Binding Assay (whole cell, [3H]ramatroban competition)",
  "conditions": "CHO-K1 cells stably expressing human CRTH2 and G-alpha16; 20 nM [3H]ramatroban; 1 hour, room temperature",
  "from_the_text": "A whole cell receptor binding assay using [^3H]ramatroban as the competing radioactive ligand was employed to evaluate the compound binding activity to human CRTH2. The radioactive ligand [^3H]ramatroban was synthesized according to Sugimoto et. al. (Eur. J. Pharmacol. 524, 30-37, 2005) to a specific activity of 42 Ci/mmol.\nA cell line stably expressing human CRTH2 was established by transfecting CHO-K1 cells with two mammalian expression vectors that harbored human CRTH2 and G-alpha16 cDNAs, respectively, using FuGene® 6 transfection reagent (from Roche). Stable clones expressing CRTH2 were selected by staining each clone with BM16 (BD Pharmingen™ from BD Biosciences, a division of Becton, Dickinson and Company), which is a rat monoclonal antibody to human CRTH2. The cells were maintained as monolayer cultures in Ham's F-12 medium containing 10% fetal bovine serum, 100 units/mL penicillin, 100 μg/mL streptomycin, 2 mM glutamine, 0.5 mg/mL G418 (geneticin) for CRTH2, and 0.2 mg/mL hygromycin-B (for G-alpha 16). For whole cell receptor binding assay, the monolayer cells were rinsed once with PBS (phosphate buffered saline), dissociated using ethylenediaminetetraacetate (Versene™ EDTA from Lonza Inc.), and suspended in PBS containing 10 mM MgCl2 and 0.06% BSA (bovine serum albumin) at 1.5×10^6 cells/mL.\nThe binding reactions (0.2 mL) were performed in 96-well plates at room temperature in PBS containing 1.5×10^5 cells, 10 mM MgCl2, 0.06% BSA, 20 nM [^3H]ramatroban, and test compound at various concentrations. After 1 hour of binding reactions, the cells were harvested on GF™/B filter microplates (microtiter plates with embedded glass fiber from PerkinElmer, Inc.) and washed 5 times with PBS using a Filtermate™ Harvester (a cell harvester that harvests and washes cells from microplates from PerkinElmer, Inc.). The radioactivities bound to the cells were determined using a microplate scintillation counter (TopCount® NXT, from PerkinElmer, Inc.) after adding 50 μL of Microscint™ 20 scintillation fluid (from PerkinElmer, Inc.) to each well of the filter plates. The radioactivity from non-specific binding was determined by replacing compound with 10 μM of 15(R)-15-methyl PGD2 (from Cayman Chemical Company) in the reaction mixtures. The radioactivity bound to the cells in the absence of compound (total binding) was determined by replacing compound with 0.25% of DMSO (dimethyl sulfoxide) in the reaction mixture. Specific binding data were obtained by subtracting the radioactivity of non-specific binding from each binding data.\nThe IC50 value is defined as the concentration of the tested compound that is required for 50% inhibition of total specific binding. In order to calculate the IC50 value, the percent inhibition data were determined for 7 concentrations for each compound. The percent inhibition for a compound at each concentration was calculated according to the following formula, [1−(specific binding in the presence of compound)/(total specific binding)]×100. The IC50 value was then obtained by fitting the percent inhibition data to a sigmoidal dose-response (4 parameter logistic) model in the XLfit® software Excel add-in program [from ID Business Solutions Ltd., model 205, where F(x)=(A+(B−A)/(1+((C/x)^D)))].",
  "note": "pIC50: −log10 of the molar value.",
  "data": [
    {"smiles": "O=C(O)Cn1ncc2c1CCC[C@H]2NS(=O)(=O)c1cc(Br)cc(C(F)(F)F)c1", "note": "[Example 1-1a, [(R)-4-(3-Bromo-5-trifluoromethyl-benzenesulfonylamino)-4,5,6,7-tetrahydro-indazol-1-yl]-acetic acid]", "values": [
      {"measurement": "pIC50", "result": 7.89}
    ]},
    {"smiles": "O=C(O)Cn1ncc2c1CCCC2NS(=O)(=O)c1cc(Cl)cc(Cl)c1", "note": "(stereo not drawn) [Example 1-2a, [4-(3,5-Dichloro-benzenesulfonylamino)-4,5,6,7-tetrahydro-indazol-1-yl]-acetic acid]", "values": [
      {"measurement": "pIC50", "result": 6.41}
    ]},
    {"smiles": "O=C(O)Cn1ncc2c1CCCC2NS(=O)(=O)c1ccc(Cl)cc1Cl", "note": "(stereo not drawn) [Example 1-3a, [4-(2,4-Dichloro-benzenesulfonylamino)-4,5,6,7-tetrahydro-indazol-1-yl]-acetic acid]", "values": [
      {"measurement": "pIC50", "result": 6.63}
    ]},
    {"smiles": "O=C(O)Cn1ncc2c1CCC[C@H]2NS(=O)(=O)c1cc(C(F)(F)F)cc(C(F)(F)F)c1", "note": "[Example 1-4a, [(R)-4-(3,5-Bis-trifluoromethyl-benzenesulfonylamino)-4,5,6,7-tetrahydro-indazol-1-yl]-acetic acid]", "values": [
      {"measurement": "pIC50", "result": 7.79}
    ]},
    {"smiles": "Cc1ccc(S(=O)(=O)NC2CCCc3c2cnn3CC(=O)O)cc1[N+](=O)[O-]", "note": "(stereo not drawn) [Example 1-5a, [4-(4-Methyl-3-nitro-benzenesulfonylamino)-4,5,6,7-tetrahydro-indazol-1-yl]-acetic acid]", "values": [
      {"measurement": "pIC50", "result": 6.65}
    ]},
    {"smiles": "Cc1cc(C)cc(S(=O)(=O)NC2CCCc3c2cnn3CC(=O)O)c1", "note": "(stereo not drawn) [Example 1-6a, [4-(3,5-Dimethyl-benzenesulfonylamino)-4,5,6,7-tetrahydro-indazol-1-yl]-acetic acid]", "values": [
      {"measurement": "pIC50", "result": 6.40}
    ]},
    {"smiles": "O=C(O)Cn1ncc2c1CCCC2NS(=O)(=O)c1cc(Br)cc(C(F)(F)F)c1", "note": "(stereo not drawn) [Example 1-7a, [4-(3-Bromo-5-trifluoromethyl-benzenesulfonylamino)-4,5,6,7-tetrahydro-indazol-1-yl]-acetic acid]", "values": [
      {"measurement": "pIC50", "result": 7.45}
    ]},
    {"smiles": "O=C(O)Cn1ncc2c1CCCC2NS(=O)(=O)c1ccc(Br)c(F)c1", "note": "(stereo not drawn) [Example 1-8a, [4-(4-Bromo-3-fluoro-benzenesulfonylamino)-4,5,6,7-tetrahydro-indazol-1-yl]-acetic acid]", "values": [
      {"measurement": "pIC50", "result": 6.37}
    ]},
    {"smiles": "Cc1cc(S(=O)(=O)NC2CCCc3c2cnn3CC(=O)O)ccc1Br", "note": "(stereo not drawn) [Example 1-9a, [4-(4-Bromo-3-methyl-benzenesulfonylamino)-4,5,6,7-tetrahydro-indazol-1-yl]-acetic acid]", "values": [
      {"measurement": "pIC50", "result": 6.56}
    ]},
    {"smiles": "O=C(O)Cn1ncc2c1CCCC2NS(=O)(=O)c1ccc(Br)c(C(F)(F)F)c1", "note": "(stereo not drawn) [Example 1-10a, [4-(4-Bromo-3-trifluoromethyl-benzenesulfonylamino)-4,5,6,7-tetrahydro-indazol-1-yl]-acetic acid]", "values": [
      {"measurement": "pIC50", "result": 6.92}
    ]},
    {"smiles": "O=C(O)Cn1ncc2c1CCCC2NS(=O)(=O)c1cnc(Cl)c(Br)c1", "note": "(stereo not drawn) [Example 1-11a, [4-(5-Bromo-6-chloro-pyridine-3-sulfonylamino)-4,5,6,7-tetrahydro-indazol-1-yl]-acetic acid]", "values": [
      {"measurement": "pIC50", "result": 6.54}
    ]},
    {"smiles": "COc1cc(C(F)(F)F)cc(S(=O)(=O)N[C@@H]2CCCc3c2cnn3CC(=O)O)c1", "note": "[Example 1-12a, [(R)-4-(3-Methoxy-5-trifluoromethyl-benzenesulfonylamino)-4,5,6,7-tetrahydro-indazol-1-yl]-acetic acid]", "values": [
      {"measurement": "pIC50", "result": 7.27}
    ]},
    {"smiles": "O=C(O)Cn1ncc2c1CCCC2NS(=O)(=O)c1cc(C(F)(F)F)ccc1C(F)(F)F", "note": "(stereo not drawn) [Example 1-13a, [4-(2,5-Bis-trifluoromethyl-benzenesulfonylamino)-4,5,6,7-tetrahydro-indazol-1-yl]-acetic acid]", "values": [
      {"measurement": "pIC50", "result": 6.69}
    ]},
    {"smiles": "CS(=O)(=O)c1cccc(S(=O)(=O)NC2CCCc3c2cnn3CC(=O)O)c1", "note": "(stereo not drawn) [Example 1-14a, [4-(3-Methanesulfonyl-benzenesulfonylamino)-4,5,6,7-tetrahydro-indazol-1-yl]-acetic acid]", "values": [
      {"measurement": "pIC50", "result": 7.36}
    ]},
    {"smiles": "COc1ccc(S(=O)(=O)NC2CCCc3c2cnn3CC(=O)O)cc1C(F)(F)F", "note": "(stereo not drawn) [Example 1-15a, [4-(4-Methoxy-3-trifluoromethyl-benzenesulfonylamino)-4,5,6,7-tetrahydro-indazol-1-yl]-acetic acid]", "values": [
      {"measurement": "pIC50", "result": 6.58}
    ]},
    {"smiles": "CS(=O)(=O)c1cc(S(C)(=O)=O)cc(S(=O)(=O)N[C@@H]2CCCc3c2cnn3CC(=O)O)c1", "note": "[Example 1-16a, [(R)-4-(3,5-Bis-methanesulfonyl-benzenesulfonylamino)-4,5,6,7-tetrahydro-indazol-1-yl]-acetic acid]", "values": [
      {"measurement": "pIC50", "result": 8.23}
    ]},
    {"smiles": "Cc1ccc(S(=O)(=O)NC2CCCc3c2cnn3CC(=O)O)cc1Cl", "note": "(stereo not drawn) [Example 1-17a, [4-(3-Chloro-4-methyl-benzenesulfonylamino)-4,5,6,7-tetrahydro-indazol-1-yl]-acetic acid]", "values": [
      {"measurement": "pIC50", "result": 6.42}
    ]},
    {"smiles": "O=C(O)CCn1ncc2c1CCC[C@H]2NS(=O)(=O)c1cc(C(F)(F)F)cc(C(F)(F)F)c1", "note": "[Example 1-18a, 3-[(R)-4-(3,5-Bis-trifluoromethyl-benzenesulfonylamino)-4,5,6,7-tetrahydro-indazol-1-yl]-propionic acid]", "values": [
      {"measurement": "pIC50", "result": 6.58}
    ]},
    {"smiles": "CN([C@@H]1CCCc2c1cnn2CC(=O)O)S(=O)(=O)c1cc(C(F)(F)F)cc(C(F)(F)F)c1", "note": "[Example 2-1a, {(R)-4-[(3,5-Bis-trifluoromethyl-benzenesulfonyl)-methyl-amino]-4,5,6,7-tetrahydro-indazol-1-yl}-acetic acid]", "values": [
      {"measurement": "pIC50", "result": 7.92}
    ]},
    {"smiles": "CN([C@@H]1CCCc2c1cnn2CC(=O)O)S(=O)(=O)c1ccc(Br)cc1Cl", "note": "[Example 2-2a, {(R)-4-[(4-Bromo-2-chloro-benzenesulfonyl)-methyl-amino]-4,5,6,7-tetrahydro-indazol-1-yl}-acetic acid]", "values": [
      {"measurement": "pIC50", "result": 7.01}
    ]},
    {"smiles": "CN([C@@H]1CCCc2c1cnn2CC(=O)O)S(=O)(=O)c1ccc(C(F)(F)F)cc1Cl", "note": "[Example 2-3a, {(R)-4-[(2-Chloro-4-trifluoromethyl-benzenesulfonyl)-methyl-amino]-4,5,6,7-tetrahydro-indazol-1-yl}-acetic acid]", "values": [
      {"measurement": "pIC50", "result": 7.10}
    ]},
    {"smiles": "CN([C@@H]1CCCc2c1cnn2CC(=O)O)S(=O)(=O)c1ccc(Br)cc1F", "note": "[Example 2-4a, {(R)-4-[(4-Bromo-2-fluoro-benzenesulfonyl)-methyl-amino]-4,5,6,7-tetrahydro-indazol-1-yl}-acetic acid]", "values": [
      {"measurement": "pIC50", "result": 6.60}
    ]},
    {"smiles": "CN([C@@H]1CCCc2c1cnn2CC(=O)O)S(=O)(=O)c1cc(Br)cc(C(F)(F)F)c1", "note": "[Example 2-5a, {(R)-4-[(3-Bromo-5-trifluoromethyl-benzenesulfonyl)-methyl-amino]-4,5,6,7-tetrahydro-indazol-1-yl}-acetic acid]", "values": [
      {"measurement": "pIC50", "result": 7.95}
    ]},
    {"smiles": "CN([C@@H]1CCCc2c1cnn2CC(=O)O)S(=O)(=O)c1cc(Br)cc(Br)c1", "note": "[Example 2-6a, {(R)-4-[(3,5-Dibromobenzenesulfonyl)-methyl-amino]-4,5,6,7-tetrahydro-indazol-1-yl}-acetic acid]", "values": [
      {"measurement": "pIC50", "result": 7.30}
    ]},
    {"smiles": "CN([C@@H]1CCCc2c1cnn2CC(=O)O)S(=O)(=O)c1cc(C(C)(C)C)cc(C(C)(C)C)c1", "note": "[Example 2-7a, {(R)-4-[(3,5-Di-tert-butyl-benzenesulfonyl)-methyl-amino]-4,5,6,7-tetrahydro-indazol-1-yl}-acetic acid]", "values": [
      {"measurement": "pIC50", "result": 6.78}
    ]},
    {"smiles": "CN([C@@H]1CCCc2c1cnn2CCC(=O)O)S(=O)(=O)c1cc(C(F)(F)F)cc(C(F)(F)F)c1", "note": "[Example 2-8a, 3-{(R)-4-[(3,5-Bis-trifluoromethyl-benzenesulfonyl)-methyl-amino]-4,5,6,7-tetrahydro-indazol-1-yl}-propionic acid]", "values": [
      {"measurement": "pIC50", "result": 7.36}
    ]},
    {"smiles": "CCOc1cc(C(F)(F)F)cc(S(=O)(=O)NC2CCCc3c2cnn3CC(=O)O)c1", "note": "(stereo not drawn) [Example 3-1a, [4-(3-Ethoxy-5-trifluoromethyl-benzenesulfonylamino)-4,5,6,7-tetrahydro-indazol-1-yl]-acetic acid]", "values": [
      {"measurement": "pIC50", "result": 6.84}
    ]}
  ]
}
